Like-named read-outs stand apart in the source and are kept apart here.
What was measured:
U251 cells = assay: Hoechst viability assay 72 h / median-effect combination study; settings: Homo sapiens, U-251, 72 h, read-out: IC50 value for viability in U251 cells after 72 hours
MDA-231 cells = assay: Median-effect drug interaction, Hoechst viability, 72 h; assay type: cell-based, human; settings: for IC50: Homo sapiens
Description: (§1) The ratios of the drug combination were based on the ratio of their IC50 of each drug alone. Cell viability was determined by MTT assay, as described hereinabove. The drugs were added to the cells and incubated for 72 h.
(§2) Drug interaction in adherent cells was evaluated as above except that the viability was determined by Hoechst assay.

T47D cells = assay: as above; assay type: cell-based, human; settings: for IC50: Homo sapiens
Description: as §1, §2

bFGF = bFGF protein and mRNA in tumor and heart of xenograft mice (Western blot, qRT-PCR); assay type: in vivo; settings: for expression of mouse bFGF protein in the heart: FIG. 4D; for expression of bFGF in tumors / bFGF mRNA in the tumor: tumor; for bFGF mRNA in the tumor: FIG. 6
Description: (§3) Tumors and hearts of the mice were rapidly removed, frozen on dry ice and kept at −70° C. Tissue was then homogenized and RNA and proteins extracted using the NucleoSpin® RNA/Protein kit according to the manufacturer's protocol (Macherey-Nagel, GmbH & Co KG).
(§4) Total RNA ([…]) was primed by oligo dT and reverse-transcribed by Verso cDNA kit according to the manufacturer's protocol (Thermo Scientific). Analyses of qPCR were performed with Kapa Sybr® Fast (Kapa Biosystems) on a Step One Plus thermocycler (Applied Biosystems). The comparative threshold method was used to calculate the relative gene expression. Values were normalized against glyceraldehyde 3-phosphate dehydrogenase (GAPDH). Expression of the GAPDH mRNA in each individual sample was used to normalize the dataset. The sequences of the primers were as follows: […]
(§5) Protein levels in the samples were determined with the BCA protein assay kit (Pierce). The samples were subjected to Western blot analyses. The expression of proteins was visualized using their specified primary antibodies followed by the secondary IgG IRDye® 680DX antibody. Each detected band was quantified using the Odyssey Infrared Imaging System (LI-COR Biosciences) and normalized to the level of actin. The fold increase of a specific protein was determined by the ratio of the band intensity obtained from treated and untreated samples.
(§6) The pro-angiogenic factors basic fibroblast growth factor (bFGF) and vascular endothelial growth factor (VEGF) are potent angiogenic stimulators. The expression of bFGF in the tumor and in the heart was evaluated by Western blot and qRT-PCR analyses and expression of VEGF by IHC.

c-Myc = c-Myc and p-c-Myc (Thr 58) Western blot in tumor and heart of xenograft mice; assay type: in vivo
Description: as §5
The c-Myc protein is an important regulator of normal cell physiology and in tumor cells it plays an important role in activating oncogenic pathways [Soucek & Evan, Curr Opin Genet Dev 2010, 20:91-95].

HO-1 = HO-1 protein and mRNA in tumor and heart of xenograft mice (Western blot, qRT-PCR); assay type: in vivo; settings: heart
Description: as §3, §4, §5
The effect of the drugs on the expression of genes associated with cell survival and death was examined by following changes in transcription and protein expression in tissue samples taken from the mice with glioblastoma xenografts. Heme oxygenase (HO-1) is known to play a protective role in the heart, whereas, in many cancers it is expressed and promotes growth and survival of neoplastic cells.

VEGF = VEGF immunohistochemistry in tumor and heart of xenograft mice; assay type: in vivo; settings: FIG. 4F
Description: as §6

[1] = system: U251 human glioblastoma xenograft; assay: Glioblastoma xenograft model (survival, body weight, tumor volume, tumor weight, Ki-67); settings: for tumor volume of vehicle-treated group relative to treated group: from day 11, FIG. 3C
Description: Xenograft of glioblastoma: 8- to 10-week-old male Hsd athymic FOXN (Harlan, Jerusalem, Israel) were inoculated sc in the flanks with 5×10^6 U251 cells. Tumor length (L) and width (W) were measured with a caliper twice weekly. Tumor volumes were calculated according to the formula: (L×W2)/2. When the tumor was established (volume of 50-100 mm^3) the mice were randomly divided into six groups treated with: vehicle control (saline); ip Dox 4 mg/kg once weekly; po AN446 25 mg/kg thrice a week; po AN7 50 mg/kg thrice a week; combination of AN446+Dox (4 mg/kg ip Dox once a week and 25 mg/kg po AN446 thrice a week); AN7+Dox (4 mg/kg ip Dox once a week and 50 mg/kg po AN7 thrice weekly). Untreated, non-bearing tumor naive mice were maintained under the same conditions. The experiment was terminated after 25 treatment days, the mice were sacrificed under CO2 and their tumors and hearts were removed, weighed and divided into parts dedicated for immunohistochemistry (IHC) and the rest were frozen (−80° C.) for Western blot and Quantitative PCR (qRT-PCR) analyses.
Inactivation of avidin-biotin nonspecific binding was prevented by a blocking kit, according to the manufacturer's protocol (Vector Laboratories). […] The secondary antibody was biotin conjugated goat anti-rabbit or anti-mouse IgG. Slides were then stained with the ABC peroxidase system, developed with diaminobenzidine (DAB) (Vector Laboratories) and counterstained with hematoxylin (Bio-Optica, Milano, Italy). The slides were examined using an Olympus BX 52 light microscope, and images were taken with an Olympus DP50 digital camera system.
Mice were implanted subcutaneously with U251 cells and when the tumors reached 50-100 mm^3 treatments were initiated. Survival was evaluated by the Kaplan-Meier end-product analysis, where treatment failure (the experimental end points) was a loss of ˜20% body weight, or a tumor volume of >1 cm^3.

TLR4 [2] = settings: 24 hours, concentrations based on the IC50, FIG. 15
MCP-1 = MCP-1 gene expression in MDA-MB-231 cells (qRT-PCR); assay type: cell-based, human; settings: single agent, FIG. 7C
Description: (§7) The effect of AN446 on inflammation-associated pathways was evaluated in the monocytic THP1 cell line and in the MDA-MB-231 breast carcinoma cell line. Supernatants of treated THP1 cells were collected and IL-6, IL-10 and TNF-α concentrations were quantified by ELISA (R&D systems). TLR4 expression in THP1 cells was assessed using fluorescent anti-TLR4 antibodies and FACS analysis. In addition, gene expression for MCP-1, TNF-α and TLR4 in MDA-MB-231 was evaluated by qRT-PCT, following treatment with AN446 and/or paclitaxel.

TNF-α = TNF-α gene expression in MDA-MB-231 cells (qRT-PCR); assay type: cell-based, human; settings: single agent, FIG. 7C
Description: as §7

TLR4 [3] = assay: TLR4 gene expression in MDA-MB-231 cells (qRT-PCR); assay type: cell-based, human; settings: single agent, FIG. 7C
Description: as §7

[4] = system: NCI-N87 gastric carcinoma cells; assay: Median-effect drug interaction, Hoechst viability, 72 h; assay type: cell-based, human; settings: Homo sapiens
Description: as §1, §2

SMILES: CCCC(CCC)C(=O)O [Valproic acid, valproic acid]
- IC50 (U251 cells): 3000 µM
- IC50 (MDA-231 cells; MDA-MB-231, MDA-231, in combination with paclitaxel, read-out: com IC50): 1600 ± 10 µM
- IC50 (MDA-231 cells; MDA-MB-231, MDA-231, single agent, Table 3, read-out: IC50): 3900 ± 200 µM
- CI (combination index with paclitaxel) (MDA-231 cells; MDA-231): 0.8
- CI (combination index with paclitaxel) (T47D cells): 1.1
- IC50 (T47D cells; in combination with paclitaxel, read-out: com IC50): 1800 ± 100 µM
- IC50 (T47D cells; single agent, Table 3, read-out: IC50): 4400 ± 300 µM

SMILES: CCCC(=O)OCOP(=O)(OCC)OCC [AN7, butyroxymethyl diethylphosphate]
- expression of mouse bFGF protein in the heart (bFGF; co-treatment with Dox): significantly increased its expression to a level higher than that observed in naive or vehicle-treated mice
- expression of mouse bFGF protein in the heart (bFGF; single agent): unchanged
- expression of bFGF in tumors (bFGF; combination with Dox): further diminished
- bFGF mRNA in the tumor (bFGF; combined treatment with Dox): suppressed it significantly further
- bFGF mRNA in the tumor (bFGF; single agent): significantly reduced the bFGF mRNA
- expression of bFGF in tumors (bFGF; single agent, FIGS. 4A, 4B): decreased significantly
- c-Myc protein expression in the hearts (c-Myc; heart, FIG. 5B): not affected
- c-Myc protein expression in tumors (c-Myc; tumor, FIG. 5A): decreased dramatically
- HO-1 expression in the heart (HO-1; co-treatment with Dox): increased the expression of this enzyme to a significantly higher level
- HO-1 mRNA in the heart, elevation of basal expression level (HO-1; co-treatment with Dox): 1.76±0.36 fold
- HO-1 expression in the heart (decrease) (HO-1; single agent, FIGS. 4D, 4E): did not significantly change
- VEGF expression in the heart (VEGF): elevated
- survival of mice when added to Dox treatment ([1]; added to Dox 4 mg/kg ip once a week, day 25, FIG. 3A): 100%
- body weight loss when added to Dox treatment ([1]; added to Dox 4 mg/kg, FIG. 3B): significant attenuation of body weight loss
- Ki-67 positive (proliferating) cells in tumors ([1]; in combination with Dox, FIG. 3F): reduced the proliferating cells to a level significantly lower than any of the single drug treatments
- tumor volume of vehicle-treated group relative to treated group ([1]; in combination with Dox): 3 fold
- Ki-67 positive cells in tumors ([1]; single agent vs vehicle, FIGS. 3E, 3F): considerably more Ki-67 positive cells were detected in tumors of the vehicle-treated mice
- tumor volume of vehicle-treated group relative to treated group ([1]; single agent): 2 fold
- survival of mice until end of experiment (day 25) ([1]; single agent: AN446 25 mg/kg or AN7 50 mg/kg po thrice weekly, Dox 4 mg/kg ip once a week, FIG. 3A): 100%

SMILES: Nc1ccccc1NC(=O)c1ccc(CNC(=O)OCc2cccnc2)cc1 [entinostat]
- TLR4 expression in MDA-231 cells (TLR4 [2]): no apparent effect on TLR4 expression
- IC50 (U251 cells): 2 µM

SMILES: CC(=O)O[C@H]1C(=O)[C@@]2(C)[C@H]([C@H](OC(=O)c3ccccc3)[C@]3(O)C[C@H](OC(=O)[C@H](O)[C@@H](NC(=O)c4ccccc4)c4ccccc4)C(C)=C1C3(C)C)[C@]1(OC(C)=O)CO[C@@H]1C[C@@H]2O [Paclitaxel, paclitaxel]
- expression of MCP-1 (MCP-1): paclitaxel-induced increase
- expression of TNF-α (TNF-α): paclitaxel-induced increase
- expression of TLR4 (TLR4 [3]): paclitaxel-induced increase
- IC50 ([4]; NCI-N87, paclitaxel in combination with AN446, read-out: Paclitaxel com IC50): 0.0018 ± 0.0002 µM
- IC50 ([4]; NCI-N87, single agent, read-out: Paclitaxel IC50): 0.004 µM
- IC50 (MDA-231 cells; MDA-MB-231, MDA-231, paclitaxel in combination with AN446, read-out: Paclitaxel com IC50): 0.0017 ± 1e-05 µM
- IC50 (MDA-231 cells; MDA-MB-231, MDA-231, paclitaxel in combination with SAHA, read-out: Paclitaxel com IC50): 0.0015 µM
- IC50 (MDA-231 cells; MDA-MB-231, MDA-231, paclitaxel in combination with valproic acid, read-out: Paclitaxel com IC50): 0.0016 ± 1e-05 µM
- IC50 (MDA-231 cells; MDA-MB-231, MDA-231, single agent, read-out: Paclitaxel IC50): 0.0044 ± 0.0002 µM
- IC50 (T47D cells; paclitaxel in combination with AN446, read-out: Paclitaxel com IC50): 0.0028 ± 0.0001 µM
- IC50 (T47D cells; paclitaxel in combination with SAHA, read-out: Paclitaxel com IC50): 0.0023 ± 1e-05 µM
- IC50 (T47D cells; paclitaxel in combination with valproic acid, read-out: Paclitaxel com IC50): 0.0036 ± 0.0001 µM
- IC50 (T47D cells; single agent, read-out: Paclitaxel IC50): 0.0032 ± 0.0001 µM

SMILES: O=C(CCCCCCC(=O)Nc1ccccc1)NO [SAHA, suberanilohydroxamic acid]
- TLR4 expression in MDA-231 cells (TLR4 [2]): no apparent effect on TLR4 expression
- IC50 (T47D cells; in combination with Dox, read-out: com IC50): 0.13 µM

SMILES: C/C=C1\NC(=O)[C@H]2CSSCC/C=C/[C@H](CC(=O)N[C@H](C(C)C)C(=O)N2)OC(=O)[C@H](C(C)C)NC1=O [romidepsin]
- IC50 (U251 cells): 0.001 µM

Reference: patent US20160228444A1, “NUCLEOSIDE ANALOGS AND USES THEREOF” (Ramot at Tel-Aviv University Ltd., priority 2015, published 2016)
